Two molecules from patent US20230405130A1, “COMPOSITIONS AND METHODS FOR MODIFYING BACTERIAL GENE EXPRESSION” (priority 2020, published 2023) can be followed below.

The test system of data set [1] is dnaE. In words: dnaE expression after anti-dnaE oligonucleotide treatment (immunoblotting). In kind it is cell-based, C. difficile. The settings on record: FIG. 2. The procedure: Studies were performed to identify C. difficile gene targets with the least pathway redundancy, while ensuring ASO specificity (oligonucleotides ≥25 bp in length). […] Five candidate C. difficile gene targets were identified, and dnaE (which encodes the alpha subunit of DNA polymerase III, and is invariant in C. difficile strains) harbored the most favorable translation inhibition potential (confirmed via immunoblotting; FIG. 2). Thus, it was used in further experiments. Specifically, the ASO formulation is a 2′-O-methyl phosphorothioate (PTO) gapmer, which has a good safety record (Shen et al., Antisense Nucleic Acid Drug Dev. 2001 August; 11(4):257-64; Chen et al., Transplantation. 2005 Feb. 27; 79(4):401-8; Nomura et al., Int J Pharm. 2018 Aug. 25; 547(1-2):556-562.).

The test system of data set [2] is cultured human intestinal epithelial cells. In words: Toxicity to cultured human intestinal epithelial cells. Format: cell-based. The settings on record: at the doses used for C. difficile inhibition.
Data set [3] concerns E. faecalis. Kind of data set: In vitro growth of commensal bacteria: E. faecalis. In kind it is cell-based. The settings on record: only at >17× the dosing range to treat C. difficile. The procedure:
(§1) Nanocomplex CAB-964 was complexed to the anti-dnaE ASO (SEQ ID NO:1) as previously described (Hegarty et al., Int J Nanomedicine. 2016 Aug. 1; 11:3607-19; Sharma et al., J Antibiot (Tokyo). 2018 August; 71(8):713-721; herein incorporated by reference in its entirety) and the resulting nanocomplex is called SRPNT. Multiple in vitro tests were performed with SRPNT as well as its parent empty CAB, with CAB CYDE-21 and its derived nanocomplex as comparators. For the pathogen (Hegarty 2016, supra; Sharma 2018, supra) a whole genome-sequenced Ribotype 027 C. difficile strain associated with severe, complicated CDI in human subjects was used.

Data set [4] can be described thus: Water solubility. In kind it is physicochemical. The following applies: room temperature.
Data set [5] has as its system B. fragilis. Kind of data set: In vitro growth of commensal bacteria: B. fragilis. In kind it is cell-based. The settings on record: only at >17× the dosing range to treat C. difficile. The procedure:
as §1

The subject of data set [6] is E. coli. Kind of data set: In vitro growth of commensal bacteria: E. coli. Format: cell-based. The following applies: only at >17× the dosing range to treat C. difficile. As to the method:
as §1

Data set [7] relates to Ribotype 027 C. difficile strain. In words: In vitro anti-C. difficile activity / MIC. In kind it is cell-based. The settings on record: FIG. 3 legend. The procedure: as §1

As for “5′-G*T*T*C*A*T*TAAA TCACC TCC T*G*C*T*T*T*A3′ (GTTCATTAAATCACCTCCTGCTTT; listed as DNA, chemistry not fully specified) [anti-dnaE oligonucleotide, 2′-O-methyl phosphorothioate (PTO) gapmer ASO targeting dnaE]”, the dnaE expression entry in data set [1] is “decreases dnaE expression”.

As to `c1cc2c([n+](CCCCCCCCCC[n+]3cccc4c3CCCC4)c1)CCCC2` [CAB-964], the “toxicity to cultured human intestinal epithelial cells” value in data set [2] is given as “non-toxic”. Besides, in data set [3], the “growth reduction of E. faecalis” value is 7%. In data set [4], this molecule gave a solubility of 26 mg/mL. Further, the “growth reduction of B. fragilis” value in data set [5] was determined as 7%. For the same molecule, the “growth reduction of E. coli” value in data set [6] was 7%. Further, the anti-C. difficile activity result in data set [7] is “no anti-C. difficile activity”.

As usually defined, the solubility is the concentration that dissolves in the medium under given conditions.
